Changes are numbered by the printed parent chain.
Columns and labels:
Type in all cases: biochemical
[1] = target: T1, human MCU and EMRE reconstituted in yeast mitochondria (HsMCU/EMRE) (Homo sapiens, UniProt Q8NE86, D261A); test: aequorin peak Ca2+ in isolated yeast mitochondria, Hill fit
T1 sequence (Q8NE86 51-351 D261A): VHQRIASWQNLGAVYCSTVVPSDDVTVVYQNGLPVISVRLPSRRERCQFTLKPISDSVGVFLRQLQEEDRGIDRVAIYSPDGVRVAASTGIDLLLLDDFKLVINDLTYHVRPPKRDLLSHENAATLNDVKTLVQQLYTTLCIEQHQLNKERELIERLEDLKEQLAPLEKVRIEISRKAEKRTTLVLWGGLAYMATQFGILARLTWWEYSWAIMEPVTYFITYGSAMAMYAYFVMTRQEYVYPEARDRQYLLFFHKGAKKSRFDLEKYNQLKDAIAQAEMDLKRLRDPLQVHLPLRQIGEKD
T1 sequence (Q9H4I9 53-107 partner): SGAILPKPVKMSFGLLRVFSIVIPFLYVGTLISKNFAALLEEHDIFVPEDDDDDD

[2] = target: T2, human MCU and EMRE reconstituted in yeast mitochondria (HsMCU/EMRE) (Homo sapiens, UniProt Q8NE86); test: aequorin Ca2+ uptake rate in isolated yeast mitochondria, Hill fit
T2 sequence (Q8NE86 51-351): T1 sequence (Q8NE86 51-351 D261A) with A211D
T2 sequence (Q9H4I9 53-107 partner): T1 sequence (Q9H4I9 53-107 partner)

[3] = target: T3, MCU (native mitochondrial calcium uniporter of HEK293T mitoplasts and HeLa cells) (Homo sapiens, UniProt Q8NE86); test: whole-mitoplast patch clamp, HEK293T; settings: 1 mM bath Ca2+, -160 mV; bath (cytosolic) side, reversible
T3 sequence (Q8NE86 51-351): T1 sequence (Q8NE86 51-351 D261A) with A211D
T3 sequence (Q9H4I9 53-107 partner): T1 sequence (Q9H4I9 53-107 partner)

SMILES	IC50 [1] [µM]	IC50 [2] [µM]	% reduction of MCU Ca2+ current at 10 μM [3]
NCCNc1ccc(NCCN)c2c1C(=O)c1ccncc1C2=O [pixantrone]	31.8 ± 6.5	15 ± 1	–
O=C1c2c(O)ccc(O)c2C(=O)c2c(NCCNCCO)ccc(NCCNCCO)c21 [mitoxantrone]	10.7 ± 1.4	8.3 ± 0.9	~ 85%
Nc1ccc(NCCNCCO)c2c1C(=O)c1c(O)ccc(O)c1C2=O [impurity A]	–	36 ± 0.2	–

From PMC5825229 (Molecular cell, 2017)
